Reference: BindingDB's records for doi:10.1016/s0960-894x(00)00113-x (Kyoto University, 2000)
pIC50: −log10 of the molar value.

Assay: The compound was tested for its inhibitory activity against platelet aggregation

| SMILES | pIC50 |
| --- | --- |
| CC(C)(C(=O)N1CCC(CC(=O)O)CC1)[C@H](NC(=O)c1ccc(C(=N)N)cc1)c1ccc(Cl)cc1 | 6.48 |
| NC(N)=Nc1ccc(C(=O)NCCC(=O)N2CCC(C(=O)O)CC2)cc1 | 3.12 |
| CN(CC(=O)N1CCC(CC(=O)O)CC1)C(=O)c1ccc(C(=N)N)cc1 | 5.12 |
| CC(C)(CCC(=O)c1ccc(C(=N)N)cc1)C(=O)N1CCC(CC(=O)O)CC1 | 6.20 |
| N=C(N)c1ccc(C(=O)NCCC(=O)N2CCC(C(=O)O)CC2)cc1 | 4.48 |
| CN(CC(=O)N1CCC(C(=O)O)CC1)C(=O)c1ccc(CNC(=N)N)cc1 | 4.28 |
| CCCCNC(=N)c1ccc(C(=O)N[C@H](CC)C(C)(C)C(=O)N2CCC(CC(=O)O)CC2)c(F)c1 | 6.30 |
| N=C(N)c1ccc(C(=O)N[C@H](CC(=O)N2CCC(CC(=O)O)CC2)c2ccccc2)cc1 | 5.28 |
| CC(C)(C(=O)N1CCC(CC(=O)O)CC1)[C@H](NC(=O)c1ccc(C(=N)N)cc1Cl)c1ccccc1 | 6.73 |
| CC(C)(/C=C/C(=O)c1ccc(C(=N)N)cc1)C(=O)N1CCC(CC(=O)O)CC1 [{1-[(E)-5-(4-Carbamimidoyl-phenyl)-2,2-dimethyl-5-oxo-pent-3-enoyl]-piperidin-4-yl}-acetic acid] | 6.68 |
| COC(=O)C1CCN(C(=O)CN(C)C(=O)c2ccc(C(=N)N)cc2)CC1 | 3.48 |
| COC(CCc1ccc(C(=N)N)cc1)C(C)(C)C(=O)N1CCC(CC(=O)O)CC1 (stereo unspecified) | 6.62 |
| C[C@H](NC(=O)c1ccc(CNC(=N)N)cc1)C(=O)N1CCC(C(=O)O)CC1 | 3.15 |
| CC(C)(C(=O)N1CCC(CC(=O)O)CC1)C(/C=C/c1ccc(C(=N)N)cc1)OCc1ccccc1 (stereo unspecified) | 6.44 |
| C[C@@H](CC(=O)N1CCC(CC(=O)O)CC1)NC(=O)c1ccc(C(=N)N)cc1 | 5.30 |
| CC(C)(C(=O)N1CCC(CC(=O)O)CC1)C(O)/C=C/c1ccc(C(=N)N)cc1 (stereo unspecified) | 6.52 |
| CCCCCCOC(/C=C/c1ccc(C(=N)N)cc1)C(C)(C)C(=O)N1CCC(CC(=O)O)CC1 (stereo unspecified) | 6.10 |
| CC(C)(C(=O)N1CCC(CC(=O)O)CC1)[C@H](NC(=O)c1ccc(C(=N)N)cc1)c1ccc2ccccc2c1 | 6.72 |
| CN(CC(=O)N1CCC(C(=O)O)CC1)C(=O)c1ccc(N=C(N)N)cc1 | 4.00 |
| C[C@H](NC(=O)c1ccc(C(=N)N)cc1)C(=O)N1CCC(CC(=O)O)CC1 | 4.52 |
| CC(C)(CNC(=O)c1ccc(C(=N)N)cc1)C(=O)N1CCC(CC(=O)O)CC1 [{1-[3-(4-Carbamimidoyl-benzoylamino)-2,2-dimethyl-propionyl]-piperidin-4-yl}-acetic acid] | 6.24 |
| N=C(N)c1ccc(C(=O)N[C@@H](CC(=O)N2CCC(CC(=O)O)CC2)C(=O)Oc2ccccc2)cc1 | 5.39 |
| N=C(N)c1ccc(C(=O)NCCC(=O)N2CCC(COC(=O)O)CC2)cc1 | 4.74 |
| CN(CCC(=O)N1CCC(CC(=O)O)CC1)C(=O)c1ccc(C(=N)N)cc1 | 5.19 |
| CN(CC(=O)N1CCC(CC(=O)O)CC1)C(=O)c1ccc(N=C(N)N)cc1 | 3.12 |
| CC(C)[C@@H](CC(=O)N1CCC(CC(=O)O)CC1)NC(=O)c1ccc(C(=N)N)cc1 | 5.04 |
| CC(C)(C(=O)/C=C/c1ccc(C(=N)N)cc1)C(=O)N1CCC(CC(=O)O)CC1 | 5.46 |
| C#CCN(C(=O)c1ccc(C(=N)N)cc1)[C@H](CCCC)C(C)(C)C(=O)N1CCC(CC(=O)O)CC1 | 6.15 |
| N=C(N)c1ccc(C(=O)N[C@@H](CC(=O)N2CCC(CC(=O)O)CC2)C(=O)OC2CCCCC2)cc1 | 5.72 |
| C[C@H](NC(=O)c1ccc(C(=N)N)cc1)C(=O)N1CCC(C(=O)O)CC1 | 3.96 |

These reach a higher pIC50. Values come first.

| pIC50 | SMILES |
| --- | --- |
| 6.82 | CN(C(=O)c1ccc(C(=N)N)cc1)[C@H](c1ccccc1)C(C)(C)C(=O)N1CCC(CC(=O)O)CC1 |
| 6.87 | C=CCOC(/C=C/c1ccc(C(=N)N)cc1)C(C)(C)C(=O)N1CCC(CC(=O)O)CC1 (stereo unspecified) |
| 6.89 | CCOC(/C=C/c1ccc(C(=N)N)cc1)C(C)(C)C(=O)N1CCC(CC(=O)O)CC1 (stereo unspecified) |
| 6.90 | COC(/C=C/c1ccc(C(=N)N)cc1)C(C)(C)C(=O)N1CCC(CC(=O)O)CC1 (stereo unspecified) |
| 6.90 | CC(C)(C(=O)N1CCC(CC(=O)O)CC1)[C@H](NC(=O)c1ccc(C(=N)N)cc1)c1cccc(Cl)c1 |
| 6.94 | CC(C)(C(=O)N1CCC(CC(=O)O)CC1)[C@H](NC(=O)c1ccc(C(=N)N)cc1)c1ccccc1 |
| 6.96 | CC(C)(C(=O)N1CCC(CC(=O)O)CC1)[C@H](NC(=O)c1ccc(C(=N)N)cc1)c1ccc(O)cc1 |
| 7.07 | C/C=C/[C@@H](NC(=O)c1ccc(C(=N)N)cc1)C(C)(C)C(=O)N1CCC(CC(=O)O)CC1 |
| 7.10 | CC[C@@H](NC(=O)c1ccc(C(=N)N2CCOCC2)cc1F)C(C)(C)C(=O)N1CCC(CC(=O)O)CC1 |
| 7.10 | CCCCC[C@@H](NC(=O)c1ccc(C(=N)N)cc1)C(C)(C)C(=O)N1CCC(CC(=O)O)CC1 |
| 7.10 | CC(C)(C(=O)N1CCC(CC(=O)O)CC1)[C@@H](CCc1ccccc1)NC(=O)c1ccc(C(=N)N)cc1 |
| 7.12 | CC(C)[C@@H](NC(=O)c1ccc(C(=N)N)cc1)C(C)(C)C(=O)N1CCC(CC(=O)O)CC1 |
| 7.35 | CC[C@@H](NC(=O)c1ccc(C(=N)N2CCCC2)cc1F)C(C)(C)C(=O)N1CCC(CC(=O)O)CC1 |
| 7.37 | CC[C@@H](NC(=O)c1ccc(C(=N)N)cc1)C(C)(C)C(=O)N1CCC(CC(=O)O)CC1 |
| 7.39 | CC(C)C[C@@H](NC(=O)c1ccc(C(=N)N)cc1)C(C)(C)C(=O)N1CCC(CC(=O)O)CC1 |
| 7.39 | CCC[C@@H](NC(=O)c1ccc(C(=N)N)cc1)C(C)(C)C(=O)N1CCC(CC(=O)O)CC1 |
| 7.39 | CCCC[C@@H](NC(=O)c1ccc(C(=N)N)cc1)C(C)(C)C(=O)N1CCC(CC(=O)O)CC1 |
| 7.39 | C[C@@H](NC(=O)c1ccc(C(=N)N)cc1)C(C)(C)C(=O)N1CCC(CC(=O)O)CC1 |
| 7.40 | CC[C@@H](NC(=O)c1ccc(C(=N)N2CCN(c3ccc(F)cc3)CC2)cc1F)C(C)(C)C(=O)N1CCC(CC(=O)O)CC1 |
| 7.42 | CC(C)(C(=O)N1CCC(CC(=O)O)CC1)[C@H](NC(=O)c1ccc(C(=N)N)cc1)c1cccc(O)c1 |
| 7.42 | C[C@@H](NC(=O)c1ccc(C(=N)N)cc1F)C(C)(C)C(=O)N1CCC(CC(=O)O)CC1 |
| 7.43 | CCCC[C@@H](NC(=O)c1ccc(C(=N)N)cc1F)C(C)(C)C(=O)N1CCC(CC(=O)O)CC1 |
| 7.44 | CC[C@@H](NC(=O)c1ccc(C(=N)N2CCN(C)CC2)cc1F)C(C)(C)C(=O)N1CCC(CC(=O)O)CC1 |
| 7.51 | CC[C@@H](NC(=O)c1ccc(C(=N)N)cc1F)C(C)(C)C(=O)N1CCC(CC(=O)O)CC1 |
| 7.62 | CC[C@@H](NC(=O)c1ccc(C(=N)N2CCC(O)CC2)cc1F)C(C)(C)C(=O)N1CCC(CC(=O)O)CC1 |
| 7.66 | CC[C@@H](NC(=O)c1ccc(C(=N)N2CCSC2)cc1F)C(C)(C)C(=O)N1CCC(CC(=O)O)CC1 |
